Source: patent US20220142948A1, “COMPOSITIONS AND METHODS FOR MODULATING METABOLIC REGULATORS OF T CELL PATHOGENICITY” (The Broad Institute, Inc., priority 2019, published 2022)
Entries after “also recorded” stand apart in the source; their conditions may differ.

Experiments:
[1] = tested on: Th17n, Th17p and iTreg cells; experiment: Population (bulk) RNA-seq of in vitro differentiated T cells; format: cell-based, mouse
Protocol: (§1) RNA-seq. For population (bulk) RNA-seq, in vitro differentiated T-cells were sorted for live cells and lysed with RLT Plus buffer and RNA was extracted using the RNeasy Plus Mini Kit (Qiagen). Full-length RNA-seq libraries were prepared as previously described and paired-end sequenced (75 bp×2) with a 150 cycle Nextseq 500 high output V2 kit.
Bulk RNA-Seq and SMART-Seq2 analysis. Applicants aligned single-cell SMART-Seq2 libraries with Bowtie2, quantified TPM gene expression with RSEM, and performed QC as Applicants described in detail in a previous publication^51. This computational pipeline is a massively revised and updated version of the one originally used to analyze these libraries^19. Batch effects and other nuisance factors were normalized with a model chosen empirically with SCONE ^52. Bulk RNA-Seq were processed with a modified variant of the same pipeline. In the absence of UMIs, differentially expressed genes were called through a linear model fitted to TPM values with the limma R package and with a mean-variance trend added to the empirical bayes prior^53,54.
as §1
Bulk RNA libraries from DFMO- or vehicle-treated Th17p, Th17n, or Treg were studied with 3 replicates per condition for a total of 18 libraries as shown in FIG. 36A. Genes that are associated with a Th17 or Treg programs (orange and purple, respectively, in FIG. 36B-C) were determined by differential expression test between bulk RNA libraries of (vehicle-treated) Th17n and Th17p on one side and Treg on the other with BH-adjusted p<0.05 and absolute value of log 2 fold-change of at least 1.5. Genes associated with the Th17p or Th17n program (magenta and green, respectively, in FIG. 40A) were determined by differential expression test between bulk RNA libraries of (vehicle-treated) Th17p vs. Th17n with the same thresholds. The PCA shown in FIG. 36A was computed on the set of 3,414 that were differentially associated with Th17, Treg, Th17p, or Th17n programs by the aforementioned criteria to focus it on the subspace of the transcriptome relevant to Th17 pathogenicity phenotypes.
Applicants aligned single-cell SMART-Seq libraries with Bowtie2, quantified TPM gene expression with RSEM, and performed QC as Applicants described in detail in a previous publication (Fletcher et al., 2017). This computational pipeline is a massively revised and updated version of the one originally used to analyze these libraries (Gaublomme et al., 2015). Batch effects and other nuisance factors were normalized with a model chosen empirically with SCONE (Cole et al., 2019). Bulk RNA-Seq were processed with a modified variant of the same pipeline.
For the Smart-Seq libraries, due the absence of UMIs in the dataset, differentially expressed genes were called through a linear model _tted to TPM values with the limma R package and with a mean-variance trend added to the empirical Bayes prior (Ritchie et al., 2015). For the bulk RNA libraries, differentially expressed genes were called with limma-trend or limma-voom (Law et al., 2014) depending on the variance of library sizes, as recommended in the limma package manual (Smyth, 2019).

[2] = tested on: MOG35-55 specific T cells; experiment: Antigen-specific recall response of draining lymph node cells to MOG35-55 (thymidine incorporation, Legendplex); format: in vivo, mouse
Protocol: FIG. 37A-37I—Targeting ODC1 and SAT1 alleviate EAE. (A) Schematics of the polyamine pathway; (B-D) The effects of chemical inhibition of ODC1 by DFMO on EAE. Wildtype mice were immunized with MOG35-55/CFA to induce experimental autoimmune encephalomyelitis and followed for clinical scoring. DFMO were provided in drinking water from day 0 for 10 days in experimental group. B, Clinical score over time. […] C, Antigen-specific cell proliferation is measured by thymidine incorporation after culturing cells isolated from draining lymph node of mice (d15 post immunization) with increasing dose of MOG35-55 peptide for 3 days. D, Flow cytometric analysis of intracellular Foxp3 expression in T cells isolated from CNS at day 15 post immunization. (E-I) The effects of genetic perturbation of SAT1. E, The effects of SAT1 deficiency on metabolome. Abundance of metabolites in the polyamine pathway were determined by LC/MS based metabolomics. Th17n and Th17p cells were differentiated in vitro from naïve cells isolated from WT or SAT1^−/− mice. (F-I) The effects of SAT1 deficiency on EAE. EAE were induced as in (B) in wildtype and SAT1^fl/flCD4^cre mice. F, Clinical score (left) and histological score (right) showing the number of CNS infiltrates show representative experiment with 5 WT and 8 CKO mice. G-H, Cells were isolated from draining lymph node of mice (d23 post immunization) and co-cultured with increasing dose of MOG35-55 peptide for 3 days. Antigen-specific cell proliferation is measured by thymidine incorporation (G) and antigen-specific cytokine secretion by legendplex (H). I, Flow cytometry analysis of intracellular transcription factor expression in CD4 T cells isolated from CNS day 15 post immunization. Linear regression analysis (b, c, f, g), two-way anova (e) and student t test (d, i) were used for statistical analysis.
FIG. 46A-46J—EGCG exacerbates and DHEA ameliorates Th17-induced EAE in vivo. 2D2 TCR-transgenic Th17 cells were adoptively transferred after differentiation in vitro in the presence of an inhibitor or vehicle as indicated. (A, C, G) Clinical outcome of EAE; (B, D) Histological score based on cell infiltrates in meninges and parenchyma of CNS; (E, F) Draining lymph node (cervical) from respective mice were isolated and pulsed with increasing dose of MOG35-55 peptide for 3 days and (E) subjected to thymidine incorporation assay; or (F) measurement of cytokine secretion by Legendplex and flow cytometry. Concentrations were normalized through division by the respective response to no antigen control (H-I) Independent pathological report of CNS isolated from mice with EAE at end point (d35 for EGCG experiments; d28 for DHEA experiment); Optic nerves were not found in the histologic section from one animal in the EGCG+IL-23 group. (J) Representative histology of spinal cord and spinal nerve roots. […] PC, posterior column; PH, posterior horn. Individual mouse numbers are indicated. […] All are H. & E., 40× objective. Three similar experiments were performed.

[3] = mice transferred with EGCG-treated Th17n cells

Compound: NCCC[C@](N)(C(=O)O)C(F)F [DFMO, 2-(difluoromethyl)ornithine]
- expression of chromatin modifiers / chromatin associated genes [1]: alters chromatin associated genes; also recorded: significant changes
- genes shared / expressed comparably between Th17 and Treg cells [1]: do not change; also recorded: no significant effect
- transcriptome shift (principal component analysis) ([1]; Th17 and iTreg cells): shift Th17 cells to Treg-like transcriptome; also recorded: shift the cells towards Treg gene expression; also recorded: clearly driving cells towards Treg cells; also recorded: driving Th17 cells towards Treg cell profiles; also recorded: promotes Treg-like transcriptome
- Foxp3 ([1]; Th17 cells): upregulated
- Il17a ([1]; Th17 cells): significantly suppressed
- Il17f ([1]; Th17 cells): significantly suppressed
- Il23r ([1]; Th17 cells): significantly suppressed
- Th17 specific genes / transcriptome ([1]; Th17n and Th17p cells): reducing canonical Th17 genes; also recorded: shift Th17 specific genes down; also recorded: suppressed
- Treg specific genes / transcriptome ([1]; Th17n and Th17p cells): shift Treg specific genes up; also recorded: promoted
- proinflammatory state genes (upregulated in Th17p) ([1]; Th17p cells): downregulation
- regulatory state genes (upregulated in Th17n) ([1]; Th17p cells): significant upregulation
- antigen-specific recall response / proliferation (thymidine incorporation) ([2]; draining lymph node of DFMO treated EAE animals): decreases H3 incorporation; also recorded: decreases proliferation of immune cells; also recorded: significantly reduced

Compound: epigallocatechin-3-gallate [EGCG]
- CASP1 ([1]; Th17n): up-regulated; also recorded: upregulating
- IKZF3 ([1]; Th17n): downregulated; also recorded: downregulating
- IL7R ([1]; Th17n): up-regulated; also recorded: upregulating
- IL22 ([1]; Th17n): up-regulated; also recorded: upregulating
- pro-pathogenic transcriptional program / module ([1]; Th17n cells): promotes the pro-pathogenic module; also recorded: clearly strengthened
- pro-regulatory module ([1]; Th17n cells): suppresses the pro-regulatory module
- position on PC1 (pathogenicity phenotype) ([1]; bulk RNA-Seq of d1 Th17n and Th17p cells): toward a more pathogenic one; also recorded: shifted cell profiles towards a more pathogenic state
- antigen-specific T cell proliferation [2, 3]: only a small difference
- secretion of IL-6 in response to antigen [2, 3]: significant increase
- secretion of IL-17F in response to antigen [2, 3]: significant increase
- secretion of IL-17 in response to antigen [2, 3]: significant increase
- secretion of IL-22 in response to antigen [2, 3]: significant increase
